{"source": "paper PMC11142126", "about": "(bioRxiv, 2024)", "key": {"[1]": {"test_system": "K562 p21-ffLuc reporter (wildtype TP53)", "assay": "cells", "details": "Homo sapiens, K562, read-out: 461 / 5.3 / 107"}, "PPM1D [2]": {"biological_target": "T1, PPM1D (Homo sapiens, UniProt O15297)", "T1 sequence (O15297 1-420)": "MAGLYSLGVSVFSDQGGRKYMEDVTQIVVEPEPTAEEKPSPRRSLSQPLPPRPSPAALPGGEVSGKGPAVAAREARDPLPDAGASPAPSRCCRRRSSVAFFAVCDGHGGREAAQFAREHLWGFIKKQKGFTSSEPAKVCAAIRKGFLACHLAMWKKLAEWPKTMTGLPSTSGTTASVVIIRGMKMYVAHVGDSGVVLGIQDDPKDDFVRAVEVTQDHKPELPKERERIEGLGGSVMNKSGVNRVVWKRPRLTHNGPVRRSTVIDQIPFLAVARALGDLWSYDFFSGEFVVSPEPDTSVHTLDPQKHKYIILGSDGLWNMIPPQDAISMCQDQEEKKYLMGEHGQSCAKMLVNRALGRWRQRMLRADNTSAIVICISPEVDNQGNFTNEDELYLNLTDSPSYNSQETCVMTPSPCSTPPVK", "assay": "SPR", "assay_type": "binding"}, "PPM1D [3]": {"biological_target": "T1, PPM1D", "assay": "biochemical"}, "[4]": {"test_system": "PPM1D in MOLM13-tPPM1D cells", "assay": "cells", "details": "read-out: 461 / 5.3 / 107"}, "[5]": {"test_system": "MOLM13 TP53 WT (MOLM13-tPPM1D)", "assay": "cells", "details": "Homo sapiens, MOLM-13, read-out: 461 / 5.3 / 107"}}, "data": [{"smiles": "Cc1ncc(Cl)cc1NCc1ccc(C(=O)N[C@@H](CC2CCCC2)C(=O)NC2CC2)s1", "note": "[GSK2830371]", "values": [{"measurement": "EC50", "setting": "[1]", "result": 0.221, "unit": "µM"}, {"measurement": "Kd", "setting": "PPM1D [2]", "result": 0.008, "unit": "µM"}, {"measurement": "IC50", "setting": "PPM1D [3]", "result": 0.02, "unit": "µM"}, {"measurement": "EC50", "setting": "[4]", "result": 0.383, "unit": "µM"}, {"measurement": "IC50", "setting": "[5]", "result": 0.394, "unit": "µM"}]}]}
